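Compound exposure: 48 hours, 5 concentrations, 96-well plates. At the GI50, growth is halved.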 Active and inactive are the calls of the source. Cut-off read from the data, not from the text of the source: active = GI50 up to about 1.1 µM and inactive = higher.
Assays:
Assay in all cases: NCI-60 cell line screen, 48 h
786-0 = tested on: 786-0
A498 = tested on: A498
A549 = tested on: A549
ACHN = tested on: ACHN
BT-549 = tested on: BT-549
CAKI-1 = tested on: CAKI-1
CCRF-CEM = tested on: CCRF-CEM
COLO 205 = tested on: COLO 205
DU-145 = tested on: DU-145
EKVX = tested on: EKVX
HCC 2998 = tested on: HCC 2998
HCT-116 = tested on: HCT-116
HCT-15 = tested on: HCT-15
HL-60 = tested on: HL-60
HOP-62 = tested on: HOP-62
HOP-92 = tested on: HOP-92
HT-29 = tested on: HT-29
Hs-578T = tested on: Hs-578T
IGROV-1 = tested on: IGROV-1
KM12 = tested on: KM12
LOX IMVI = tested on: LOX IMVI
M14 = tested on: M14
MCF7 = tested on: MCF7
MDA-MB-231 = tested on: MDA-MB-231
MDA-MB-435 = tested on: MDA-MB-435
MDA-N = tested on: MDA-N
MOLT-4 = tested on: MOLT-4
Malme-3M = tested on: Malme-3M
NCI-H226 = tested on: NCI-H226
NCI-H23 = tested on: NCI-H23
NCI-H460 = tested on: NCI-H460
NCI-H522 = tested on: NCI-H522
NCI/ADR-RES = tested on: NCI/ADR-RES
OVCAR-3 = tested on: OVCAR-3
OVCAR-4 = tested on: OVCAR-4
OVCAR-5 = tested on: OVCAR-5
OVCAR-8 = tested on: OVCAR-8
PC-3 = tested on: PC-3
RPMI-8226 = tested on: RPMI-8226
SF-539 = tested on: SF-539
SK-MEL-28 = tested on: SK-MEL-28
SK-MEL-2 = tested on: SK-MEL-2
SK-MEL-5 = tested on: SK-MEL-5
SK-OV-3 = tested on: SK-OV-3
SN12C = tested on: SN12C
SR = tested on: SR
SW-620 = tested on: SW-620
TK-10 = tested on: TK-10
U-251 = tested on: U-251
UACC-257 = tested on: UACC-257
UACC-62 = tested on: UACC-62
UO-31 = tested on: UO-31
K562 = tested on: K562
RXF 393 = tested on: RXF 393
SF-268 = tested on: SF-268
SF-295 = tested on: SF-295
SNB-19 = tested on: SNB-19
T47D = tested on: T47D

CC(C)(C)C1CCC2c3c([nH]c4ccccc34)C3C(=O)N(c4cc(Br)cc(Br)c4)C(=O)C3C2C1 (configuration not stated)
GI50 (786-0): 6.95 µM (inactive)
GI50 (A498): 19.7 µM (inactive)
GI50 (A549): 14.8 µM (inactive)
GI50 (ACHN): 20 µM (inactive)
GI50 (BT-549): 33.9 µM (inactive)
GI50 (CAKI-1): 13.7 µM (inactive)
GI50 (CCRF-CEM): 5.79 µM (inactive)
GI50 (COLO 205): 19.6 µM (inactive)
GI50 (DU-145): 21.4 µM (inactive)
GI50 (EKVX): 6.58 µM (inactive)
GI50 (HCC 2998): 5.05 µM (inactive)
GI50 (HCT-116): 4.34 µM (inactive)
GI50 (HCT-15): 25.4 µM
GI50 (HL-60): 2.55 µM (inactive)
GI50 (HOP-62): 18.7 µM (inactive)
GI50 (HOP-92): 2.63 µM (inactive)
GI50 (HT-29): 9.89 µM (inactive)
GI50 (Hs-578T): 7 µM (inactive)
GI50 (IGROV-1): 70.3 µM (inactive)
GI50 (KM12): 12.6 µM (inactive)
GI50 (LOX IMVI): 27.2 µM (inactive)
GI50 (M14): 25.4 µM (inactive)
GI50 (MCF7): 3.2 µM (inactive)
GI50 (MDA-MB-231): 27 µM (inactive)
GI50 (MDA-MB-435): 19.7 µM (inactive)
GI50 (MDA-N): 31.9 µM (inactive)
GI50 (MOLT-4): 5.26 µM (inactive)
GI50 (Malme-3M): 57.9 µM (inactive)
GI50 (NCI-H226): 21.9 µM (inactive)
GI50 (NCI-H23): 15.9 µM (inactive)
GI50 (NCI-H460): 6.43 µM (inactive)
GI50 (NCI-H522): 20.9 µM (inactive)
GI50 (NCI/ADR-RES): 14.6 µM (inactive)
GI50 (OVCAR-3): > 10 µM (inactive)
GI50 (OVCAR-4): 10.1 µM (inactive)
GI50 (OVCAR-5): 31.6 µM (inactive)
GI50 (OVCAR-8): 16 µM (inactive)
GI50 (PC-3): 9.95 µM (inactive)
GI50 (RPMI-8226): 36.4 µM (inactive)
GI50 (SF-539): 16.7 µM (inactive)
GI50 (SK-MEL-28): 13.2 µM (inactive)
GI50 (SK-MEL-2): 26.7 µM (inactive)
GI50 (SK-MEL-5): 24.2 µM (inactive)
GI50 (SK-OV-3): 61.1 µM (inactive)
GI50 (SN12C): 6.82 µM (inactive)
GI50 (SR): 7.89 µM (inactive)
GI50 (SW-620): 51.2 µM (inactive)
GI50 (TK-10): 19.9 µM (inactive)
GI50 (U-251): 13.4 µM (inactive)
GI50 (UACC-257): > 100 µM (inactive)
GI50 (UACC-62): 25.1 µM (inactive)
GI50 (UO-31): 6.97 µM (inactive)

COc1cc2c(cc1OCCCCN1C(=O)c3cccc4cccc(c34)C1=O)N=C[C@@H]1CCCN1C2=O
GI50 (786-0): 2.64 µM (inactive)
GI50 (A498): 7.66 µM (inactive)
GI50 (A549): 5.68 µM (inactive)
GI50 (ACHN): 2.22 µM (inactive)
GI50 (BT-549): 3.52 µM (inactive)
GI50 (CAKI-1): 2.58 µM (inactive)
GI50 (CCRF-CEM): 1.64 µM (inactive)
GI50 (COLO 205): 2.72 µM (inactive)
GI50 (DU-145): 4.01 µM (inactive)
GI50 (EKVX): 17.1 µM (inactive)
GI50 (HCC 2998): 6.97 µM (inactive)
GI50 (HCT-116): 3.59 µM (inactive)
GI50 (HCT-15): 3.99 µM
GI50 (HOP-62): 7.73 µM (inactive)
GI50 (HOP-92): 6.18 µM (inactive)
GI50 (HT-29): 5.73 µM (inactive)
GI50 (IGROV-1): 2.07 µM (inactive)
GI50 (K562): 4.15 µM (inactive)
GI50 (KM12): 3.57 µM (inactive)
GI50 (LOX IMVI): 3.83 µM (inactive)
GI50 (M14): 5.56 µM (inactive)
GI50 (MCF7): 1.69 µM (inactive)
GI50 (MDA-MB-231): 3.53 µM (inactive)
GI50 (MDA-MB-435): 3.83 µM (inactive)
GI50 (MDA-N): 2.31 µM (inactive)
GI50 (MOLT-4): 3.25 µM (inactive)
GI50 (Malme-3M): 3.72 µM (inactive)
GI50 (NCI-H226): 8.36 µM (inactive)
GI50 (NCI-H23): 3.74 µM (inactive)
GI50 (NCI-H460): 3.96 µM (inactive)
GI50 (NCI-H522): 1.68 µM (inactive)
GI50 (NCI/ADR-RES): 6.52 µM (inactive)
GI50 (OVCAR-3): 3.4 µM (inactive)
GI50 (OVCAR-4): 3.27 µM (inactive)
GI50 (OVCAR-5): 4.95 µM (inactive)
GI50 (OVCAR-8): 3.11 µM (inactive)
GI50 (PC-3): 5.27 µM (inactive)
GI50 (RPMI-8226): 2.69 µM (inactive)
GI50 (RXF 393): 2.09 µM (inactive)
GI50 (SF-268): 4.92 µM (inactive)
GI50 (SF-295): 6.04 µM (inactive)
GI50 (SF-539): 2.55 µM (inactive)
GI50 (SK-MEL-28): 11.7 µM (inactive)
GI50 (SK-MEL-2): 3.47 µM (inactive)
GI50 (SK-MEL-5): 2.01 µM (inactive)
GI50 (SK-OV-3): 9.48 µM (inactive)
GI50 (SN12C): 3.53 µM (inactive)
GI50 (SNB-19): 6.17 µM (inactive)
GI50 (SW-620): 4.92 µM (inactive)
GI50 (T47D): 7.93 µM (inactive)
GI50 (TK-10): 2.47 µM (inactive)
GI50 (U-251): 3.24 µM (inactive)
GI50 (UACC-257): 7.05 µM (inactive)
GI50 (UACC-62): 3.47 µM (inactive)
GI50 (UO-31): 1.68 µM (inactive)

From ChEMBL document CHEMBL1201862, “PubChem BioAssay data set” (2004)
